Laboratory results from ChEMBL document CHEMBL1201862, “PubChem BioAssay data set” (2004).
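Values below derive from 48-hour exposures of cells grown in 96-well plates, with endpoints linearly interpolated between the two concentrations bracketing the appropriate inhibition level. GI50 = concentration required for 50% inhibition of growth.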 Calls of active or inactive are those of the source. No stated cut-off is given here; in the data, active = GI50 up to about 1.1 µM and inactive = higher.

Legend:
Test in all cases: inhibition of tumour cell growth, NCI panel, 48 h
U-251 = test system: U-251
UACC-257 = test system: UACC-257
ACHN = test system: ACHN
NCI/ADR-RES = test system: NCI/ADR-RES
786-0 = test system: 786-0
K562 = test system: K562
SF-268 = test system: SF-268
BT-549 = test system: BT-549
HT-29 = test system: HT-29
EKVX = test system: EKVX
TK-10 = test system: TK-10
OVCAR-4 = test system: OVCAR-4
Malme-3M = test system: Malme-3M
T47D = test system: T47D
RPMI-8226 = test system: RPMI-8226
HL-60 = test system: HL-60
SK-MEL-5 = test system: SK-MEL-5
HOP-92 = test system: HOP-92
LOX IMVI = test system: LOX IMVI
SR = test system: SR

| Compound | GI50 (U-251) | GI50 (UACC-257) | GI50 (ACHN) | GI50 (NCI/ADR-RES) | GI50 (786-0) | GI50 (K562) | GI50 (SF-268) | GI50 (BT-549) | GI50 (HT-29) | GI50 (EKVX) | GI50 (TK-10) | GI50 (OVCAR-4) | GI50 (Malme-3M) | GI50 (T47D) | GI50 (RPMI-8226) | GI50 (HL-60) | GI50 (SK-MEL-5) | GI50 (HOP-92) | GI50 (LOX IMVI) | GI50 (SR) |
| --- | --- | --- | --- | --- | --- | --- | --- | --- | --- | --- | --- | --- | --- | --- | --- | --- | --- | --- | --- | --- |
| O=C1c2ccccc2C2(c3ccc(F)cc3)NCCN12 (stereo unspecified) | > 100 µM (inactive) | > 100 µM (inactive) | > 100 µM (inactive) | > 100 µM (inactive) | > 100 µM (inactive) | > 100 µM (inactive) | > 100 µM (inactive) | > 100 µM (inactive) | > 100 µM (inactive) | > 100 µM (inactive) | > 100 µM (inactive) | > 100 µM (inactive) | > 100 µM (inactive) | > 100 µM (inactive) | > 100 µM (inactive) | > 100 µM (inactive) | > 100 µM (inactive) | – | – | – |
| CC1CCCC2=C1C(c1ccc(Cl)cc1)n1c(s/c(=C\c3ccc(Cl)cc3)c1=O)=N2 (stereo unspecified) | > 100 µM (inactive) | > 100 µM (inactive) | > 100 µM (inactive) | – | > 100 µM (inactive) | > 100 µM (inactive) | > 100 µM (inactive) | 22.1 µM (inactive) | > 100 µM (inactive) | > 100 µM (inactive) | > 100 µM (inactive) | – | – | > 100 µM (inactive) | > 100 µM (inactive) | – | > 100 µM (inactive) | > 100 µM (inactive) | > 100 µM (inactive) | – |
| CCOC(=O)c1c(SCCN2CCOCC2)n(-c2ccccc2)c(=S)n(-c2ccccc2)c1=O | > 100 µM (inactive) | 25.8 µM (inactive) | > 100 µM (inactive) | – | 21.2 µM (inactive) | 19 µM (inactive) | 37.4 µM (inactive) | 39.3 µM (inactive) | 19.5 µM (inactive) | – | > 100 µM (inactive) | > 100 µM (inactive) | > 100 µM (inactive) | 31.8 µM (inactive) | 33.7 µM (inactive) | 20.8 µM (inactive) | 27.7 µM (inactive) | 51.6 µM (inactive) | 18.5 µM (inactive) | 18.4 µM (inactive) |
| Cn1nc(-c2ccccc2)c2c(-c3ccccc3)c3cc(Cl)ccc3nc21 | > 100 µM (inactive) | > 100 µM (inactive) | > 100 µM (inactive) | – | > 100 µM (inactive) | > 100 µM (inactive) | > 100 µM (inactive) | > 100 µM (inactive) | 49.3 µM (inactive) | > 100 µM (inactive) | > 100 µM (inactive) | > 100 µM (inactive) | > 100 µM (inactive) | > 100 µM (inactive) | > 100 µM (inactive) | 18.2 µM (inactive) | > 100 µM (inactive) | – | > 90.4 µM (inactive) | > 100 µM (inactive) |
| CC1(C)CC(=O)/C(=C/C2CCNC2=S)C(=O)N1 (stereo unspecified) | > 100 µM (inactive) | > 100 µM (inactive) | > 100 µM (inactive) | > 100 µM (inactive) | > 100 µM (inactive) | > 100 µM (inactive) | > 100 µM (inactive) | – | > 100 µM (inactive) | > 100 µM (inactive) | > 100 µM (inactive) | > 100 µM (inactive) | > 100 µM (inactive) | > 100 µM (inactive) | > 100 µM (inactive) | > 100 µM (inactive) | > 100 µM (inactive) | > 100 µM (inactive) | > 100 µM (inactive) | > 100 µM (inactive) |
| O=C(NC(=O)c1ccccc1)OC(c1ccccc1)C1CO1 (stereo unspecified) | > 100 µM (inactive) | > 100 µM (inactive) | > 100 µM (inactive) | > 100 µM (inactive) | > 100 µM (inactive) | > 100 µM (inactive) | > 100 µM (inactive) | > 100 µM (inactive) | > 100 µM (inactive) | > 100 µM (inactive) | > 100 µM (inactive) | > 100 µM (inactive) | > 100 µM (inactive) | > 100 µM (inactive) | > 100 µM (inactive) | > 100 µM (inactive) | > 100 µM (inactive) | – | > 100 µM (inactive) | – |
| CCOC(=O)C1(C(=O)OCC)C[C@]23OCCC(=O)[C@H]2[C@H]2C(=O)OC(C)(C)O[C@]23C1 | > 100 µM (inactive) | > 100 µM (inactive) | > 100 µM (inactive) | > 100 µM (inactive) | > 100 µM (inactive) | – | > 100 µM (inactive) | – | > 100 µM (inactive) | > 100 µM (inactive) | > 100 µM (inactive) | > 100 µM (inactive) | > 100 µM (inactive) | > 100 µM (inactive) | > 100 µM (inactive) | > 100 µM (inactive) | > 100 µM (inactive) | > 100 µM (inactive) | > 100 µM (inactive) | > 100 µM (inactive) |
| COC(=O)c1ccc2c(c1)CC1(C2)Cc2cc3c(cc2C1)CCC3 | 49.3 µM (inactive) | > 100 µM (inactive) | > 100 µM (inactive) | > 100 µM (inactive) | > 100 µM (inactive) | > 100 µM (inactive) | > 100 µM (inactive) | – | > 100 µM (inactive) | > 100 µM (inactive) | > 100 µM (inactive) | > 100 µM (inactive) | 79.6 µM (inactive) | > 100 µM (inactive) | > 100 µM (inactive) | > 100 µM (inactive) | > 100 µM (inactive) | > 100 µM (inactive) | > 100 µM (inactive) | > 100 µM (inactive) |
| Cc1[nH]c2ncn(/N=C/c3ccccc3)c(=N)c2c1Cc1ccccc1 | 98.6 µM (inactive) | 75.3 µM (inactive) | > 100 µM (inactive) | > 100 µM (inactive) | > 100 µM (inactive) | > 100 µM (inactive) | > 100 µM (inactive) | > 100 µM (inactive) | > 100 µM (inactive) | 69.8 µM (inactive) | > 100 µM (inactive) | > 100 µM (inactive) | – | > 100 µM (inactive) | > 100 µM (inactive) | > 100 µM (inactive) | – | 42.4 µM (inactive) | 89.9 µM (inactive) | – |
| COC(=O)C(CSSC[C@H](N/C(C)=C/C(C)=O)C(=O)OC)N/C(C)=C/C(C)=O (stereo partly specified) | 33.3 µM (inactive) | 32.7 µM (inactive) | < 0.01 µM (active) | > 100 µM (inactive) | 32.2 µM (inactive) | 33.3 µM (inactive) | 42.2 µM (inactive) | – | 38.7 µM (inactive) | 16.4 µM (inactive) | 2.66 µM (inactive) | > 100 µM (inactive) | 14.4 µM (inactive) | 16.6 µM (inactive) | 21.3 µM (inactive) | 30.2 µM (inactive) | 67.3 µM (inactive) | 32.5 µM (inactive) | 14 µM (inactive) | – |
| c1ccc2cc(CNCCOCCOCCNCc3ccc4ccccc4c3)ccc2c1 | 1.97 µM (inactive) | 1.49 µM (inactive) | 1.79 µM (inactive) | – | 1.57 µM (inactive) | 0.446 µM (active) | 1.97 µM (inactive) | 1.78 µM (inactive) | 1.31 µM (inactive) | 2.54 µM (inactive) | 1.62 µM (inactive) | 2.47 µM (inactive) | 1.76 µM (inactive) | 2.74 µM (inactive) | 1.19 µM (inactive) | 1.85 µM (inactive) | 2.39 µM (inactive) | 1.52 µM (inactive) | 1.46 µM (inactive) | 1.26 µM (inactive) |
